Source: patent US20250213652A1, “COMPOSITIONS AND THEIR USE IN METHODS FOR TREATING INTESTINAL INFLAMMATION” (REVOLO BIOTHERAPEUTICS LIMITED, priority 2022, published 2025)

What was measured:
p-STAT5 [1] = experiment: Immunoblot of p-STAT5 in PBMC cell lysates; format: cell-based, human; conditions: 20 μg/mL, 24 hours, compared to untreated PBMCs
Method: (§1) FIG. 9A-B illustrates the effects of 20 µg/mL IRL201805 on JAK-STAT signaling pathway at the transcript and protein level. FIG. 9A provides the RNAseq analysis of gene transcript levels of key signaling genes involved in CD69 activation. FIG. 9B provides the immunoblot of p-STAT5 levels in cell lysates from untreated and IRL1805 treated PBMCs.
(§2) In the present study, the effects of IRL201805 on JAK-STAT signaling pathway were assessed at the transcript and protein level. PBMCs were isolated from a healthy subject and treated for 24 h with 20 μg/mL IRL201805.
Immunoblotting of PBMC cell lysates with recombinant anti-STAT5 (phospho Y694) antibody [E208] (ab32364) (Abcam, ab32364) was used to assess the p-STAT5 levels in from untreated and IRL1805 treated PBMCs.

STAT5A = experiment: RNAseq gene transcript levels, STAT5A; format: cell-based, human; conditions: monocytes from three healthy individuals
Method: as §1, §2
(§3) RNAseq analysis was used to assess gene transcript levels of key signaling genes involved in CD69 activation.

PBMCs = experiment: p-STAT5 status and FoxP3 in T cell subsets of treated PBMCs (Table 4); format: cell-based
Text: In Tregs, CD69 is thought to promote CD39 surface expression, FoxP3 transcription, and STAT5 phosphorylation leading to STAT3 inhibition. The present study assessed the effects of IRL1805 on p-STAT5. […] Treatment of PBMCs with IRL201805 led to changes in p-STAT5 status of CD4/CD8 T cells and increased 3-fold the level of FoxP3 transcription (see Table 4).

JAK3 = experiment: RNAseq gene transcript levels, JAK3; format: cell-based, human; conditions: 20 μg/mL, 24 hour post treatment
Method: as §1, §2, §3

p-STAT5 [2] = experiment: Colon punch biopsies from IBD patients, p-STAT5 by flow cytometry; format: cell-based, human; conditions: data not shown
Method: (§4) In the present study, punch biopsies (2 mm^2) of inflamed and non-inflamed colon tissues were obtained from each consenting IBD patient with hospital ethical approval, as illustrated in FIG. 6A-E. Tissue biopsies were subsequently incubated for 12-14 hours with or without IRL201805 (20 μg/mL) and assessed for CD69+/CD39+ regulatory T cells (Tregs).

SOCS3 = experiment: RNAseq gene transcript levels, SOCS3; format: cell-based, human; conditions: 20 μg/mL, 24 hour post treatment
Method: as §1, §2, §3

[3] = system: CD69+/CD39+ regulatory T cells (Tregs); experiment: Colon punch biopsies from IBD patients, flow cytometry of CD69+/CD39+ Tregs; format: cell-based, human; conditions: 20 μg/mL, 12-14 hours, inflamed colonic tissue compared to non-inflamed tissue from the same patient
Method: FIG. 6A-E provides an outline of the procedure used to assess the effects of human primary immune cells ex vivo within inflamed and non-inflamed colon tissue treated with IRL201805.
as §4

STAT5B = experiment: RNAseq gene transcript levels, STAT5B; format: cell-based, human; conditions: monocytes from three healthy individuals
Method: as §1
In the present study, the effects of IRL201805 on JAK-STAT signaling pathway were assessed at the transcript and protein level. […]
as §3

S100A8/A9 = experiment: TMT quantitative proteomics of monocyte cell surface, S100A8/A9; format: cell-based; conditions: human monocytes (n=4), 1 hour
Text: (§5) FIG. 10B provides a bar graph showing the effects of IRL201805 on CD69 ligands, galectin-1 (Gal-1) and S100A8/A9, as detected by TMT quantitative proteomics.
(§6) The potential ligands, Gal-1 and S100A8/A9, are known to bind to CD69.43 In order to examine the expression of and influence the ability of T cells to sustain a Treg phenotype, the present study investigated the effects of 1805 on the expression of Gal-1 and S100A8/A9 in APCs (monocytes). Human monocytes isolated from healthy individuals (n=4) were exposed to 1805 for 1 hour at levels of both Gal-1 and S100A8/A9 proteins.
(§7) The abundance of Gal-1 and S100A8/A9 protein at the cell surface were detected by tandem mass tag (TMT) quantitative proteomics.

S100A9 = experiment: Mass spec analysis of S100A9 post-translational modification in monocytes; format: cell-based; conditions: human monocytes
Text: as §5, §6

galectin-1 (Gal-1) = experiment: TMT quantitative proteomics of monocyte cell surface, Gal-1; format: cell-based; conditions: human monocytes (n=4), 1 hour
Text: as §5, §6, §7

RAG2−/− mice = experiment: CD4+CD45RBhigh T cell adoptive transfer murine model of intestinal inflammation; format: in vivo
Text: In the present study, intestinal inflammation is initiated with syngeneic splenic CD4^+CD45RB^high T cell adoptive transfer into T and B cell deficient recipient mice.^37 The CD4^+CD45RB^high T cell population contains mainly naïve T cells primed for activation that are capable of inducing chronic small bowel and colonic inflammation. This animal model allows the modification of key experimental variables, including both innate and adaptive immune cell populations, to answer biologically relevant questions relating to disease pathogenesis. […]
From Day 21 until the end of the experiment on Day 49, animals are monitored daily for clinical signs of colitis to include: bodyweight loss, loose stools and/or diarrhea. On Day 49, animals are culled, the colon dissected out, and colon weight and length measured. […]
From Day 21 until the end of the experiment, animals are monitored daily for clinical signs of colitis to include bodyweight loss, loose stools and/or diarrhea.
(§8) At termination, colon from half the animals in each group are transferred in tissue fixative, then processed for paraffin-embedding in a ‘swiss roll’ format. These samples are sectioned and stained with hematoxylin and eosin (H&E) and up to two sections per animal are scored by a qualified histopathologist according to a semi-quantitative scoring system. […]

C57-bl/6 mice = experiment: Dextran sulphate sodium (DSS)-induced murine model of ulcerative colitis; format: in vivo; conditions: 5% DSS
Method: In the present study, the DDS murine model of UC will be used to evaluate the efficacy of BiP analogs such as IRL201805 (SEQ ID NO:1).
Adult C57-bl/6 mice are randomly allocated to experimental groups and allowed to acclimatize for one week. From Day-2, treatments are administered in accordance with the administration schedule below. On Day 0, drinking water is replaced by a 5% dextran sulphate sodium (DSS) in water (excluding group 1 which remains on normal drinking water throughout). Animals are given ad libitum access to the 5% DSS solution. From Day 0 until the end of the experiment on Day 7, animals are monitored daily for clinical signs of colitis to include: bodyweight loss, loose stools and/or diarrhea and presence of occult or gross blood in the stools. […]
From Day 0 until the end of the experiment, animals are monitored daily for clinical signs of colitis to include bodyweight loss, loose stools and/or diarrhea and presence of blood, occult or gross, in the stools.
as §8

CD69 [4] = experiment: Surface CD154 and CD69 activation markers on T-lymphocytes from PBMCs; format: cell-based, human; conditions: 20 μg/mL, 20 hours at 37° C., PBMCs from four healthy donors, p=0.008
Text: FIG. 11A-C provides bar graphs showing the effects of IRL201805 on the expression of surface CD154 and CD69 activation markers on T-lymphocytes from PBMCs: Tregs (FIG. 11A); effector T cells (Teffs; FIG. 11B); and CD8 T cells (FIG. 11C). Results are from PBMCs isolated from four healthy donors. Mean±SD shown. P=values represent paired sample t-test. NS=not significant.
The present study assessed the effects of 1805 on the expression of surface CD154 and CD69 activation markers on T-lymphocytes from PBMC of Tregs, Teffs, and CD8 T cells. PBMCs isolated from four healthy donors were cultured with or without 20 μg/mL IRL201805 for 20 hours at 37° C.

CD69 [5] = experiment: Surface expression of CD69 and CD39 on Tregs from PBMCs, flow cytometry; format: cell-based, human; conditions: 20 μg/mL, 20-72 h at 37° C., PBMCs from two healthy donors
Method: FIG. 8 depicts the mean fluorescent intensity of surface expression of CD69 and CD39 on Tregs from peripheral blood mononuclear cells (PBMCs) cultured with 20 μg/mL IRL201805 for 20-72 h at 37° C.
In the present study, PBMCs were isolated from two healthy donors. PBMCs were then incubated with IRL201805 (20 μg/mL) for 20-72 h at 37° C. Flow cytometry was used to measure mean fluorescent intensity and assess surface expression of CD69 and CD39 on Tregs from the PBMCs.

STAT3 phosphorylation = STAT3 phosphorylation in human lymphocytes (previous unpublished data); format: cell-based

IRL201805: a modified analog of GRP78 (BiP analog, SEQ ID NO:1) being developed for the treatment of autoimmune disease
p-STAT5 levels by immunoblot (p-STAT5 [1]): increased levels | transcript levels of STAT5A (STAT5A): did not affect | p-STAT5 in subsets of immune cells (PBMCs; PBMCs): increased p-STAT5 | increase of the level of FoxP3 transcription (PBMCs; PBMCs, versus untreated): 3 fold | % CD4+ve (PBMCs; treated PBMCs): 7.1% | % CD8+ve (PBMCs; treated PBMCs): 3.2% | % FoxP3 + Tregs (PBMCs; treated PBMCs): 0.9% | CD25hi/CD127lo Tregs (PBMCs; treated PBMCs): 3.2 | increase of JAK3 gene transcript level (JAK3): approximately 10 fold | p-STAT5 in subsets of immune cells by flow cytometry (p-STAT5 [2]): increased p-STAT5 | increase of SOCS3 gene transcript level (SOCS3): approximately 10 fold | increase in double positive CD69+/CD39+ Tregs [3]: 20% | transcript levels of STAT5B (STAT5B): did not affect | S100A8/A9 expression on the cell surface (S100A8/A9): not altered | increase of phosphorylation of S100A9 (S100A9; 1 hour): 58% | trimethylation post-translational modifications on threonine 113 on S100A9 (S100A9; mass spec): increased trimethylation | Gal-1 expression on the cell surface (galectin-1 (Gal-1)): not altered | clinical signs of colitis (bodyweight loss, loose stools and/or diarrhea) (RAG2−/− mice; IV from Day 21, dose TBC): significant reduction in clinical signs of colitis | histopathology severity scores (RAG2−/− mice; T cell transfer colitis, colon sections H&E, Day 49): significant reduction in severity scores | clinical signs of colitis (bodyweight loss, loose stools and/or diarrhea) (C57-bl/6 mice; 1 mg/kg IV Day −2, 0, 3, 6): significant reduction in clinical signs of colitis | histopathology severity scores (C57-bl/6 mice; 1 mg/kg IV, colon sections H&E, Day 7): significant reduction in severity scores | increase of CD69 on the cell surface of Tregs (CD69 [4]): 2 fold | duration of sustained CD69 expression on CD154- cells (CD69 [5]): at least 72 h

binding immunoglobulin protein [BiP]
STAT3 phosphorylation (STAT3 phosphorylation): inhibit STAT3 phosphorylation
